The test concerns the target T1, Rheb (Homo sapiens, UniProt Q15382).
T1 construct: GST-tagged Rheb amino acids 1–169
Briefly: RP-HPLC of nucleotide released from purified denatured GST-Rheb. The test is classed as binding.

This is an account of results in PMC12205066, “Lysosomal EGFR acts as a Rheb-GEF independent of its kinase activity to activate mTORC1” (Cell Research, 2025).

T1 sequence (Q15382 1-169): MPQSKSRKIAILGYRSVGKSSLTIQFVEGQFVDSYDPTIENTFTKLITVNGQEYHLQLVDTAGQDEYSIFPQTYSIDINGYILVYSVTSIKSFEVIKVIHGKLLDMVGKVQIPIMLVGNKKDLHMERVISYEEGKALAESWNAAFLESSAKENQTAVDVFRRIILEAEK

`Nc1nc2c(ncn2[C@@H]2O[C@H](CO[P@](=O)(O)OP(=O)(O)O)[C@@H](O)[C@H]2O)c(=O)[nH]1` [GDP]: the “RP-HPLC of nucleotide released from purified denatured GST-Rheb” value is recorded as “glutathione-S-transferase (GST)-tagged Rheb, which had a substantial GDP-bound fraction”.
